Test results from patent US20250145608A1, “KRAS DEGRADING COMPOUNDS COMPRISING ANNULATED 2-AMINO-3-CYANO THIOPHENES” (Boehringer Ingelheim Int'l GmbH Corp., priority 2021, published 2025).
Like-named read-outs stand apart in the source and are kept apart here.

Columns and labels:
Assay type in all cases: cell-based
KRAS4B G12V = target: T1, KRAS4B G12V (Homo sapiens, UniProt P01116, G12V); test: HiBit KRAS4B mutant spectrum degradation assay, KRAS4B G12V in GP5d cells (18 h); conditions: KRAS mutation G12V
T1 construct: HiBit; expressed in transfected cells; host or cells: GP5d cells (ECACC 95090715), stably transduced with lentivirus, CMV promoter
T1 sequence (P01116 1-188 isoform P01116-2 G12V): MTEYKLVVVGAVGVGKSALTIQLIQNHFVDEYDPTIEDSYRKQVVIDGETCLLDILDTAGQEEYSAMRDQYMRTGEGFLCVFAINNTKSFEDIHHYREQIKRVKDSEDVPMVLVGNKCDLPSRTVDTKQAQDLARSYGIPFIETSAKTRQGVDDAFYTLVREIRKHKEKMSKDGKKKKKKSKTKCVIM
From the text: (§1) The therapeutically relevant mutant KRAS constructs (WT, G12C, G12D, G12V, G13D) were obtained by site directed mutagenesis using a KRAS4B WT cDNA construct as a template. GP5d cells (ECACC Cat. No. 95090715) were transduced with lentiviral vectors expressing mutant KRAS4B cDNA under control of a CMV promoter. Stably transduced cells were selected using a neomycin selectable marker encoded on the construct.
(§2) To assess PROTAC-mediated degradation of various KRAS mutants, GP5d cells stably transduced with KRAS4B constructs as described above were seeded at 25000 cells per well in 100 μL Dulbecco's Modified Eagle medium (Sigma cat. no. D6429) supplemented with 10% fetal calf serum into white bottom opaque 96 well plates (Perkin Elmer cat no. 5680). Plates were incubated at 37° C., 5% CO2 in a humidified incubator over night to allow the cells to adhere. […] Plates were further incubated at 37° C. for 18 hours. Following incubation, 100 μL per well Promega Nano-Glo HiBit lytic detection reagent mix (Promega Nano-Glo HiBit Lytic Detection System #N3050), prepared according to the manufacturer's instructions in the kit, were added. To allow for adequate cell lysis, plates were incubated on an orbital shaker for 15 min and further incubated 30 min at room temperature. Upon completion of cell lysis, luminescence was measured using an Envision plate reader using the Ultrasensitive Luminescence Protocol for 96 well plates. Luminescence levels were normalized by the values obtained with DMSO-treated samples and plotted as percent of DMSO control. DC50 values were computed using a four parametric logistic model and are reported in nM in Table 65 for representative example (Ex.) compounds of the invention. Dmax values represent the maximal extent of degradation observed and is stated as percent of control (% Ctrl.) treatments in Table 66 for representative example (Ex.) compounds of the invention.

KRAS(G12D) = target: T2, KRAS(G12D) (Homo sapiens, UniProt P01116, G12D); test: HiBit degradation assay in GP5d-HiBit-KRAS(G12D) cells (18 h; DC50, Dmax)
T2 construct: introduced immediately downstream of the initiating Methionine codon of the endogenous KRAS locus; host or cells: GP5d-HiBit-KRAS(G12D), a CRISPR knock-in at the endogenous locus
T2 sequence (P01116 1-188 isoform P01116-2 G12D): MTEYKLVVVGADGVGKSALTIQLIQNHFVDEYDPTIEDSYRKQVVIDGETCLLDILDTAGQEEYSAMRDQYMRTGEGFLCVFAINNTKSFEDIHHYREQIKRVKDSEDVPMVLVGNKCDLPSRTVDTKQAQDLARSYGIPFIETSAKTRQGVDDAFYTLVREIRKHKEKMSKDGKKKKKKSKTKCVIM
Method in brief: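 GP5d cells carry an endogenous N-terminal HiBit tag on KRAS(G12D), knocked in by CRISPR. They were seeded overnight in DMEM/10% FCS, exposed to compound for 18 h at 37° C, then lysed for HiBit luminescence, normalised to DMSO. DC50 comes from a four-parameter logistic fit; Dmax is maximal degradation as % of control.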

KRAS4B WT = target: T3, KRAS4B WT (Homo sapiens, UniProt P01116); test: HiBit KRAS4B mutant spectrum degradation assay, KRAS4B WT in GP5d cells (18 h); conditions: KRAS mutation G12WT
T3 construct: HiBit; expressed in transfected cells; host or cells: GP5d cells (ECACC 95090715), stably transduced with lentivirus, CMV promoter
T3 sequence (P01116 1-188 isoform P01116-2): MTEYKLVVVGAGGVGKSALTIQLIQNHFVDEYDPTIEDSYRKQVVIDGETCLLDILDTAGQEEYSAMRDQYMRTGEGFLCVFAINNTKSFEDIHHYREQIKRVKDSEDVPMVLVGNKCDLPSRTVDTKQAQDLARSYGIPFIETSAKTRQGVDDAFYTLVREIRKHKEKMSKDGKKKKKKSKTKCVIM
From the text: as §1, §2

KRAS4B G13D = target: T4, KRAS4B G13D (Homo sapiens, UniProt P01116, G13D); test: HiBit KRAS4B mutant spectrum degradation assay, KRAS4B G13D in GP5d cells (18 h); conditions: KRAS mutation G13D
T4 construct: HiBit; expressed in transfected cells; host or cells: GP5d cells (ECACC 95090715), stably transduced with lentivirus, CMV promoter
T4 sequence (P01116 1-188 isoform P01116-2 G13D): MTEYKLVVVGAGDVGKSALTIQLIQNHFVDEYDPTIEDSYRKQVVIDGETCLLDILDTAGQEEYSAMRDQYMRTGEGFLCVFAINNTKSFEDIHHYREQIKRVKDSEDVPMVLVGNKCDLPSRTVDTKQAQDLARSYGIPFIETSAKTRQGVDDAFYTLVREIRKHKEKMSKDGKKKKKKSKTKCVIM
From the text: as §1, §2

GP5d cells = test: GP5d cell proliferation assay (colorectal cancer, G12D), 5 days; conditions: Homo sapiens, 120 h
Protocol: GP5d Cell Proliferation Assay (Colorectal Cancer, G12D)
(§3) GP5d cells (ECACC 95090715) are dispensed into white bottom opaque 96 well plates at a density of 5000 cells per well in 100 μL DMEM (BioWhittaker, Cat #BE12-605F) supplemented with 10% FCS. […] Compounds (10 mM stock in DMSO) are added at logarithmic dose series using the HP Digital Dispenser D300 (Tecan), normalizing for added DMSO. For the TO time point measurement, untreated cells are analysed at the time of compound addition. Plates are incubated for 5 days, and cell viability is measured using CellTiter-Glo luminescent cell viability reagent (Promega, Cat. No G7570). Viability (stated as percent of control) is defined as relative luminescence units RLU of each well divided by the RLU of cells in DMSO controls. IC50 values were computed from relative viability values using a four parametric logistic model.

NCI-H358 cells = test: NCI-H358 CTG proliferation assay (120 h) (NSCLC, G12C); conditions: Homo sapiens
Method in brief: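 NCI-H358 cells (KRAS G12C) were seeded at 2000/well (assay 1) or 200/well (assay 2) in RPMI-1640 + 10% FCS and dosed with a logarithmic series, DMSO-normalized. After 120 h, viability was read by CellTiter-Glo luminescence as percent of DMSO control, with a T0 read at dosing. IC50 came from a four-parameter fit.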

KRAS4B G12D = target: T5, KRAS4B G12D (Homo sapiens, UniProt P01116, G12D); test: HiBit KRAS4B mutant spectrum degradation assay, KRAS4B G12D in GP5d cells (18 h); conditions: KRAS mutation G12D
T5 construct: HiBit; expressed in transfected cells; host or cells: GP5d cells (ECACC 95090715), stably transduced with lentivirus, CMV promoter
T5 sequence (P01116 1-188 isoform P01116-2 G12D): as the sequence (P01116 1-188 isoform P01116-2 G12D) above
From the text: as §1, §2

SW620 cells = test: SW620 cell proliferation assay (colorectal cancer, G12V), 5 days; conditions: Homo sapiens, SW-620, 120 h
Protocol: SW620 Cell Proliferation Assay (Colorectal Cancer, G12V)
as §3, with “SW620” for “GP5d”, “(ATCC CCL-227)” for “(ECACC 95090715)”, “plates (Perkin Elmer cat no. 5680)” for “plates”, “2000” for “5000”

Question: With `Cc1ncsc1-c1ccc(CNC(=O)[C@@H]2C[C@@H](O)CN2C(=O)[C@@H](NC(=O)CCCCCN2CCCN(c3nccc(-c4noc([C@@]5(C)CCCc6sc(N)c(C#N)c65)n4)n3)[C@@H](C)C2)C(C)(C)C)cc1` [I-47] as the compound, how does the DC50 (KRAS4B G12V) read?
Answer: 98.8 nM

Question: And the “Dmax at 18 h” value (KRAS4B G12V)?
Answer: 90 % Ctrl.

Question: What about the DC50 (KRAS(G12D)) of the same compound?
Answer: 47.7 nM

Question: What about the “Dmax 18 h” value (KRAS(G12D)) of the same compound?
Answer: 94 % Ctrl

Question: And the DC50 (KRAS4B WT)?
Answer: 36.2 nM

Question: What about the “Dmax at 18 h” value (KRAS4B WT) of the same compound?
Answer: 95.4 % Ctrl.

Question: And the DC50 (KRAS4B G13D)?
Answer: 44.9 nM

Question: And the “Dmax at 18 h” value (KRAS4B G13D)?
Answer: 90 % Ctrl.

Question: What about the IC50 (GP5d cells) of the same compound?
Answer: 141 nM

Question: What about the IC50 (NCI-H358 cells; assay 1, read-out: H358 (assay 1) IC50) of the same compound?
Answer: 2500 nM

Question: What about the IC50 (NCI-H358 cells; assay 2, read-out: H358 (assay 2) IC50) of the same compound?
Answer: 168 nM

Question: What about the DC50 (KRAS4B G12D) of the same compound?
Answer: 48 nM

Question: What about the “Dmax at 18 h” value (KRAS4B G12D) of the same compound?
Answer: 94 % Ctrl.

Question: What about the IC50 (SW620 cells) of the same compound?
Answer: 280 nM
